{"source": "patent US20190059381A1", "about": "“METHOD FOR CONTROLLING PESTS OF SOYBEAN, CORN, AND COTTON PLANTS” (BASF SE, priority 2016, published 2019)", "test_system": "Brown Stink Bug (Euschistus heros)", "assay": "Action on Brown Stink Bug (Euschistus heros) on sprayed soybean seedlings", "format": "in vivo", "conditions": "for mortality at 1 ppm: 1 ppm a.i.; for mortality at 10 ppm: 10 ppm a.i.", "protocol": "Action on Brown Stink Bug (Euschistus heros)\nThe active compound is dissolved at the desired concentration in a mixture of 1:1 (vol:vol) distilled water: acetone.\nSoybean seedlings of Intacta® and BMX-Potencia with one pair of true leaves were sprayed with 2 ml solution using an airbrush. After dry, the plants in small pots were placed inside a transparent plastic cage and infested with 10 adults adult stage individuals. Treated cups were kept at about 25° C. Percent mortality was recorded after 3 and 7 days after application.", "key": {"[1]": {"conditions": "72 h, BMX-POTENCIA soybean seedlings, 3 days after application, adults, read-out: mortality 3 DAA"}, "[2]": {"conditions": "72 h, INTACTA soybean seedlings, 3 days after application, adults, read-out: mortality 3 DAA"}, "[3]": {"conditions": "168 h, BMX-POTENCIA soybean seedlings, 7 days after application, adults, read-out: mortality 7 DAA"}, "[4]": {"conditions": "168 h, BMX-POTENCIA soybean seedlings, 7 days after application, corrected according to Abbott, read-out: mortality (Abbott %) 7 DAA"}, "[5]": {"conditions": "168 h, INTACTA soybean seedlings, 7 days after application, adults, read-out: mortality 7 DAA"}, "[6]": {"conditions": "168 h, INTACTA soybean seedlings, 7 days after application, corrected according to Abbott, read-out: mortality (Abbott %) 7 DAA"}}, "note": "Where two headings read alike, the source gives them in different places.", "data": [{"smiles": "CCN1OC[C@@H](NC(=O)c2ccc(C3=NOC(c4cc(Cl)cc(Cl)c4)(C(F)(F)F)C3)cc2C)C1=O", "note": "(stereo partly drawn) [Compound I.1]", "values": [{"measurement": "mortality at 1 ppm", "setting": "[1]", "value": 7.5, "unit": "%"}, {"measurement": "mortality at 10 ppm", "setting": "[1]", "value": 17.5, "unit": "%"}, {"measurement": "mortality at 1 ppm", "setting": "[2]", "value": 12.5, "unit": "%"}, {"measurement": "mortality at 10 ppm", "setting": "[2]", "value": 17.5, "unit": "%"}, {"measurement": "mortality at 1 ppm", "setting": "[3]", "value": 50, "unit": "%"}, {"measurement": "mortality at 1 ppm", "setting": "[4]", "value": 42.9, "unit": "%"}, {"measurement": "mortality at 10 ppm", "setting": "[3]", "value": 82.5, "unit": "%"}, {"measurement": "mortality at 10 ppm", "setting": "[4]", "value": 80, "unit": "%"}, {"measurement": "mortality at 1 ppm", "setting": "[5]", "value": 57.5, "unit": "%"}, {"measurement": "mortality at 1 ppm", "setting": "[6]", "value": 50, "unit": "%"}, {"measurement": "mortality at 10 ppm", "setting": "[5]", "value": 85, "unit": "%"}, {"measurement": "mortality at 10 ppm", "setting": "[6]", "value": 82.4, "unit": "%"}]}]}
